Results on one compound are retold here after patent publication US9770441B1, “Crystalline solid forms of 6-carboxy-2-(3,5-dichlorophenyl)-benzoxazole” (Pfizer Inc., priority 2014, dated 2017).

Series [1] can be described thus: hygroscopicity as stated in the description of the solid form. The class given is physicochemical. Conditions: crystalline anhydrous form.
A short description of series [2]: isothermal vapor sorption analysis. The class given is physicochemical. As to conditions: up to 90% relative humidity, ambient temperature. How it is done:
Form 1 was analyzed via isothermal vapor sorption analysis, which is a gravimetric technique that measures how quickly and how much of a solvent is absorbed by a sample: such as a dry powder absorbing water. It does this by varying the vapor concentration surrounding the sample and measuring the change in mass which this produces.

Structures are written as SMILES.

In the case of `O=C(O)c1ccc2nc(-c3cc(Cl)cc(Cl)c3)oc2c1` [Form 1, 6-carboxy-2-(3,5-dichlorophenyl)-benzoxazole], the “hygroscopicity of the solid form” value in series [1] is listed as “non-hygroscopic”. Further, the reversible weight gain entry in series [2] is given as “less than 0.25%”.
